Test results reported in patent US20260001834A1, “COMPOUND OR SALT THEREOF, LIPID COMPOSITION, PHARMACEUTICAL COMPOSITION, AND DELIVERY CARRIER” (FUJIFILM Corporation, priority 2023, published 2026).

Columns and labels:
[1] = Particle diameter and polydispersity index (PdI) of mRNA-encapsulating lipid nanoparticles; type: physicochemical; conditions: EPO mRNA-encapsulating lipid nanoparticles, compound:DSPC:cholesterol:DMG-PEG2000=50:10:38.5:1.5; diluted with PBS
Procedure: (§1) The compounds shown in Table 9, 1,2-distearoyl-sn-glycero-3-phosphocholine (product name: COATSOME® MC-8080; NOF corporation) (hereinafter, DSPC), cholesterol (product name: Cholesterol HP; Nippon Seika Co., Ltd.), and 1,2-dimyristoyl-rac-glycero-3-(methylpolyoxyethylene 2000) (hereinafter, DMG-PEG2000) (product name: SUNBRIGHT® GM-020; NOF corporation) were dissolved in ethanol at a molar ratio (mol %) of compounds shown in Table 9:1,2-distearoyl-sn-glycero-3-phosphocholine:cholesterol:DMG-PEG2000=50:10:38.5:1.5 such that the total lipid concentration was 12.5 mmol/L, thereby obtaining an oil phase.
(§2) EPO mRNA (product name: CleanCap EPO mRNA (5moU); TriLink) was diluted with 50 mmol/L citrate buffer having a pH 4.0 such that the weight ratio of total lipid concentration to mRNA concentration is about 20:1, thereby obtaining a water phase. Then, the water phase and the oil phase were mixed together using NanoAssemblr (Precision NanoSystems) such that the volume ratio of water phase:oil phase was 3:1, and the mixed solution was 2-fold diluted with phosphate buffered physiological saline (PBS) or water, thereby obtaining a dispersion liquid of mRNA lipid nanoparticles. The dispersion liquid was dialyzed with 20 mM Tris buffer solution containing 8% sucrose using a dialysis cassette (Slide-A-Lyzer G2, MWCO: 10 kD, Thermo Fisher Scientific) to remove ethanol, thereby obtaining EPO mRNA-encapsulating lipid nanoparticles.
The particle diameter and the polydispersity index (PdI) of the mRNA-encapsulating lipid nanoparticles were obtained by measuring a dispersion liquid of lipid nanoparticles diluted with phosphate buffered physiological saline (PBS) using a particle size analyzer NanoSAQLA (Otsuka Electronics Co., Ltd.).

[2] = Encapsulation rate of mRNA in lipid nanoparticles; type: physicochemical; conditions: EPO mRNA-encapsulating lipid nanoparticles, compound:DSPC:cholesterol:DMG-PEG2000=50:10:38.5:1.5
Procedure: as §1, §2
<Evaluation of Encapsulation Rate of mRNA> (Quantification of Total mRNA Concentration)
EPO mRNA was diluted with MilliQ water to prepare a diluted sample in 2-fold dilution series from 100 μg/mL to 3.1 μg/mL, and a standard solution for calibration was prepared. 50 μL of the standard solution for calibration or the mRNA lipid nanoparticles was mixed with 450 μL of methanol to prepare a measurement solution.
The absorbance of each measurement solution at 260 nm and 330 nm was measured using a UV plate reader (Multiskan Go, Thermo Fisher Scientific), the absorbance at 330 nm was subtracted from the absorbance at 260 nm, and the result was used as the absorbance of each measurement solution. The total water phase nucleic acid concentration was calculated from the calibration curve using the absorbance of each sample measurement solution.
(Quantification of mRNA Concentration in Outer Water Phase)
The concentration of the outer water phase nucleic acid was quantified by a standard addition method using a QuanT-iT RiboGreen RNA Assay Kit (Thermo Fisher Scientific). First, a 20×TE buffer included in the above kit was diluted with water, thereby obtaining a 1×TE buffer. TE represents Tris/EDTA (ethylenediaminetetraacetic acid). EPO mRNA was diluted with a TE buffer such that the final concentration was 0 to 400 ng/mL to prepare a nucleic acid diluted series. 10 μL of mRNA lipid nanoparticles diluted 5-fold with TE buffer and 90 μL of a nucleic acid dilution series were mixed in a 96-well plate, 100 μL of a Ribogreen reagent diluted 200-fold with TE buffer was added to each well, and then fluorescence (excitation wavelength: 485 nm, fluorescence wavelength: 535 nm) was measured using a fluorescence plate reader (Infinite 200 Pro M nano+, TECAN). From the obtained results, the outer water phase nucleic acid concentration of each measurement solution was calculated according to the standard addition method.
(Calculation of Encapsulation Rate)
By using the quantification results of the total mRNA concentration and the mRNA concentration in the outer water phase that were obtained through the above steps, the mRNA encapsulation rate of the mRNA lipid nanoparticles was calculated according to the following Equation.

[3] = test system: ICR mice; assay: EPO expression level in mice after intravenous EPO mRNA lipid nanoparticles (human EPO ELISA of plasma); type: in vivo; conditions: mRNA dosage 0.1 mg/kg, plasma 6 hours after administration, Comparative Example set to 1
Procedure: as §1, §2
(§3) The dispersion liquid of mRNA lipid nanoparticles prepared in above <Preparation of EPO mRNA-encapsulating lipid nanoparticles> was intravenously administered to ICR mice at a mRNA dosage of 0.1 mg/kg. 6 hours after the administration, blood was collected from the caudal vena cava, thereby obtaining plasma. The human EPO […] was quantified by using the obtained blood plasma and Erythropoietin (EPO) Human Elisa Kit (Abcam.plc). The quantitative value is described as a relative amount of EPO protein in a case where Comparative Example is set to 1.

[4] = test system: ICR mice; assay: EPO expression level in mice, dose dependency (human EPO ELISA of plasma); type: in vivo; conditions: intravenous, plasma 6 hours after administration
Procedure: as §1, §2
as §3, with “0.1, 0.5, and 1” for “0.1”, “where the amount of EPO protein at the time of 0.1 mg/kg administration in” for “where”

Row | Structure (SMILES) | Particle diameter (nm) [1] [nm] | PdI [1] | Nucleic acid encapsulation rate [2] [%] | Relative amount of EPO protein (with respect to Comparative Example 1) [3] | Relative amount of EPO protein (with respect to Comparative Example 1 at 0.1 mg/kg) ([4]; mRNA dosage 0.1 mg/kg) | Relative amount of EPO protein (with respect to Comparative Example 1 at 0.1 mg/kg) ([4]; mRNA dosage 0.5 mg/kg) | Relative amount of EPO protein (with respect to Comparative Example 1 at 0.1 mg/kg) ([4]; mRNA dosage 1.0 mg/kg)
1 | CCCCCCCCC(CCCCCC)C(=O)OCCN(CCCN(CC)CC)CCOC(=O)OC(CCCCCC)CCCCC(=O)OCCCCCCC (stereo not shown) [Compound 24, heptyl 3-ethyl-13-hexyl-7-(2-((2-hexyldecanoyl)oxy)ethyl)-11-oxo-10,12-dioxa-3,7-diazaoctadecan-18-oate] | 98 | 0.13 | 94 | 6.54 | 4.65 | 26.81 | 45.73
2 | CCCCCCCCC(CCCCCCCC)C(=O)OCCN(CCCN(CC)CC)CCOC(=O)OC(CCCCCC)CCCCC(=O)OCCCCCCC (stereo not shown) [Compound 23, heptyl 3-ethyl-13-hexyl-7-(2-((2-octyldecanoyl)oxy)ethyl)-11-oxo-10,12-dioxa-3,7-diazaoctadecan-1 8-oate] | 85 | 0.11 | 95 | 4.71 | 4.97 | 25.74 | 43.74
3 | CCCCCCCOC(=O)CCCC(CCCCCC)OC(=O)OCCN(CCOC(=O)C(CCCCCCC)CCCCCCC)CCN(CC)CC (stereo not shown) [Compound 3, heptyl 3-ethyl-6-(2-((2-heptylnonanoyl)oxy)ethyl)-12-hexyl-10-oxo-9,11-dioxa-3,6-diazahexadecan-16-oate] | 105 | 0.06 | 84 | 3.16 | 1.91 | 17.26 | 27.22
4 | CCCCCCCC(=O)OCCN(CCOC(=O)OC(CCCCCC)CCCC(=O)OCC(CCCC)CCCCCC)CCN(CC)CC (stereo not shown) [Comparative Example, 2-butyloctyl 3-ethyl-12-hexyl-6-(2-(octanoyloxy)ethyl)-10-oxo-9,11-dioxa-3,6-diazahexadecan-16-oate, reference compound] | 161 | 0.07 | 50 | 1.00 | 1.00 | 0.25 | 1.10
